{"source": "ChEMBL document CHEMBL4431295", "about": "(Medchemcomm, 2016)", "key": {"SK-N-SH": {"test_system": "SK-N-SH", "test": "Antiproliferative activity against human SK-N-SH cells after 72 hrs by MTT assay", "type": "functional, cell-based"}, "MGC-803": {"test_system": "MGC-803", "test": "Antiproliferative activity against human MGC803 cells after 72 hrs by MTT assay", "type": "functional, cell-based", "settings": "MGC-803, 72 h"}, "HepG2": {"test_system": "HepG2", "test": "Antiproliferative activity against human HepG2 cells after 72 hrs by MTT assay", "type": "functional, cell-based", "settings": "HepG2, 72 h"}, "GES1": {"test_system": "GES1", "test": "Cytotoxicity against human GES-1 cells assessed as cell growth inhibition after 72 hrs by MTT assay", "type": "cell-based", "settings": "GES1, 72 h"}}, "note": "pIC50: −log10 of the molar value."}
{"molecule": "O=C(/C=C/c1ccncc1)c1ccc(OCc2cn(Cc3ccccc3)nn2)cc1", "values": [{"measurement": "pIC50", "setting": "SK-N-SH", "result": 5.13}, {"measurement": "pIC50", "setting": "MGC-803", "result": 4.58}, {"measurement": "pIC50", "setting": "HepG2", "result": 4.94}]}
{"molecule": "O=C(/C=C/c1ccc(Cl)cc1Cl)c1ccc(OCc2cn(Cc3ccccc3)nn2)cc1", "values": [{"measurement": "pIC50", "setting": "SK-N-SH", "result": 4.44}, {"measurement": "pIC50", "setting": "MGC-803", "result": "< 4.19"}, {"measurement": "pIC50", "setting": "HepG2", "result": 4.56}]}
{"molecule": "O=C(/C=C/c1cccnc1)c1ccc(NCc2cn(Cc3ccc(C(F)(F)F)cc3)nn2)cc1", "values": [{"measurement": "pIC50", "setting": "SK-N-SH", "result": 5.14}, {"measurement": "pIC50", "setting": "MGC-803", "result": 5.14}, {"measurement": "pIC50", "setting": "HepG2", "result": 5.03}]}
{"molecule": "COc1ccc(/C=C/C(=O)c2ccc(OCc3cn(Cc4ccccc4)nn3)cc2)c(OC)c1OC", "values": [{"measurement": "pIC50", "setting": "SK-N-SH", "result": 4.84}, {"measurement": "pIC50", "setting": "MGC-803", "result": 4.43}, {"measurement": "pIC50", "setting": "HepG2", "result": 5.03}]}
{"molecule": "O=C(/C=C/c1cccnc1)c1ccc(OCc2cn(Cc3ccccc3)nn2)cc1", "values": [{"measurement": "pIC50", "setting": "SK-N-SH", "result": 5.20}, {"measurement": "pIC50", "setting": "MGC-803", "result": 4.99}, {"measurement": "pIC50", "setting": "HepG2", "result": 5.28}]}
{"molecule": "O=C(/C=C/c1ccc(Cl)cc1)c1ccc(OCc2cn(Cc3ccccc3)nn2)cc1", "values": [{"measurement": "pIC50", "setting": "SK-N-SH", "result": 4.76}, {"measurement": "pIC50", "setting": "MGC-803", "result": 4.36}, {"measurement": "pIC50", "setting": "HepG2", "result": 4.68}]}
{"molecule": "O=C(/C=C/c1ccncc1)c1ccc(NCc2cn(Cc3ccccc3)nn2)cc1", "values": [{"measurement": "pIC50", "setting": "SK-N-SH", "result": 5.28}, {"measurement": "pIC50", "setting": "MGC-803", "result": 4.77}, {"measurement": "pIC50", "setting": "HepG2", "result": 5.15}]}
{"molecule": "O=C(/C=C/c1ccc(F)cc1)c1ccc(NCc2cn(Cc3ccccc3)nn2)cc1", "values": [{"measurement": "pIC50", "setting": "SK-N-SH", "result": 4.37}, {"measurement": "pIC50", "setting": "MGC-803", "result": 4.40}, {"measurement": "pIC50", "setting": "HepG2", "result": 4.41}]}
{"molecule": "O=c1[nH]cc(F)c(=O)[nH]1", "note": "[FLUOROURACIL]", "values": [{"measurement": "pIC50", "setting": "SK-N-SH", "result": 4.99}, {"measurement": "pIC50", "setting": "MGC-803", "result": 5.14}, {"measurement": "pIC50", "setting": "HepG2", "result": 4.99}, {"measurement": "pIC50", "setting": "GES1", "result": 5.14}]}
{"molecule": "O=C(/C=C/c1cccnc1)c1ccc(NCc2cn(Cc3ccccc3)nn2)cc1", "values": [{"measurement": "pIC50", "setting": "SK-N-SH", "result": 5.29}, {"measurement": "pIC50", "setting": "MGC-803", "result": 5.46}, {"measurement": "pIC50", "setting": "HepG2", "result": 5.36}]}
{"molecule": "Nc1ccc(C(=O)/C=C/c2cccs2)cc1", "values": [{"measurement": "pIC50", "setting": "SK-N-SH", "result": "< 4.19"}, {"measurement": "pIC50", "setting": "MGC-803", "result": "< 4.19"}, {"measurement": "pIC50", "setting": "HepG2", "result": "< 4.19"}]}
{"molecule": "O=C(/C=C/c1ccccc1F)c1ccc(OCc2cn(Cc3ccccc3)nn2)cc1", "values": [{"measurement": "pIC50", "setting": "SK-N-SH", "result": 4.54}, {"measurement": "pIC50", "setting": "MGC-803", "result": 4.30}, {"measurement": "pIC50", "setting": "HepG2", "result": 4.73}]}
{"molecule": "O=C(/C=C/c1cccnc1)c1ccc(NCc2cn(Cc3ccccc3C(F)(F)F)nn2)cc1", "values": [{"measurement": "pIC50", "setting": "SK-N-SH", "result": 5.14}, {"measurement": "pIC50", "setting": "MGC-803", "result": 5.50}, {"measurement": "pIC50", "setting": "HepG2", "result": 5.16}, {"measurement": "pIC50", "setting": "GES1", "result": 4.26}]}
